≈ marks a conversion by molar mass, not a printed value.
Tests used:
Experiment in all cases: in vitro antibacterial evaluation, MIC by broth dilution
Type in all cases: cell-based
Escherichia coli = conditions: 18 hours at 35° C.
Streptococcus sp. = conditions: broth dilution, 18 hours at 35° C.
Outline: (§1)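 Read-out: the lowest concentration at which the test strain fails to grow. Serial dilutions (64-0.06 μg/mL) in Muller-Hinton II […], 5×10^5 CFU/mL inoculum, NCCLS M7-A2 procedure.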

Enterococcus sp. = conditions: broth dilution, 18 hours at 35° C.
Outline: as §1

Staphylococcus sp. = conditions: broth dilution, 18 hours at 35° C.
Outline: as §1

MIC Escherichia coli (ATCC 25922) (Escherichia coli): 64 µg/mL (≈ 44.8 µM)
MIC Escherichia coli (GC 4559) (Escherichia coli): 64 µg/mL (≈ 44.8 µM)
MIC Escherichia coli (GC 4560) (Escherichia coli): 2 µg/mL (≈ 1.4 µM)
MIC Streptococcus agalactiae (GC 4564) (Streptococcus sp.): <0.12 µg/mL
MIC Streptococcus pneumoniae (ATCC 6301) (Streptococcus sp.): <0.12 µg/mL
MIC Streptococcus pneumoniae (GC 1894) (Streptococcus sp.): <0.12 µg/mL
MIC Streptococcus pneumoniae (GC 4565) (Streptococcus sp.): <0.12 µg/mL
MIC Streptococcus pyogenes (GC 4563) (Streptococcus sp.): <0.12 µg/mL
MIC Streptococcus pneumoniae (ATCC 6301) (Streptococcus sp.; inoculum 5×10^5 CFU/mL, strain ATCC 6301): <0.12 µg/mL
MIC Streptococcus pneumoniae (GC 1894) (Streptococcus sp.; inoculum 5×10^5 CFU/mL, strain GC 1894): <0.12 µg/mL
MIC Streptococcus pyogenes (GC 4563) (Streptococcus sp.; inoculum 5×10^5 CFU/mL, strain GC 4563): <0.12 µg/mL
MIC Streptococcus agalactiae (GC 4564) (Streptococcus sp.; inoculum 5×10^5 CFU/mL, strain GC 4564): <0.12 µg/mL
MIC Streptococcus pneumoniae (GC 4565) (Streptococcus sp.; inoculum 5×10^5 CFU/mL, strain GC 4565): <0.12 µg/mL
MIC Enterococcus avium (GC 4558) (Enterococcus sp.): 2 µg/mL (≈ 1.4 µM)
MIC Enterococcus faecalis (ATCC 29212) (Enterococcus sp.): 2 µg/mL (≈ 1.4 µM)
MIC Enterococcus faecalis (GC 2242) (Enterococcus sp.): 2 µg/mL (≈ 1.4 µM)
MIC Enterococcus faecalis (GC 2691) (Enterococcus sp.): 2 µg/mL (≈ 1.4 µM)
MIC Enterococcus faecalis (GC 3059) (Enterococcus sp.): 2 µg/mL (≈ 1.4 µM)
MIC Enterococcus faecalis (GC 4552) (Enterococcus sp.): 2 µg/mL (≈ 1.4 µM)
MIC Enterococcus faecalis (GC 4553) (Enterococcus sp.): 2 µg/mL (≈ 1.4 µM)
MIC Enterococcus faecalis (GC 4554) (Enterococcus sp.): 2 µg/mL (≈ 1.4 µM)
MIC Enterococcus faecalis (GC 6189) (Enterococcus sp.): 2 µg/mL (≈ 1.4 µM)
MIC Enterococcus faecium (GC 2243) (Enterococcus sp.): 1 µg/mL (≈ 0.7 µM)
MIC Enterococcus faecium (GC 4556) (Enterococcus sp.): 2 µg/mL (≈ 1.4 µM)
MIC Enterococcus faecium (GC 4557) (Enterococcus sp.): 2 µg/mL (≈ 1.4 µM)
MIC Enterococcus faecalis (ATCC 29212) (Enterococcus sp.; inoculum 5×10^5 CFU/mL, strain ATCC 29212): 2 µg/mL (≈ 1.4 µM)
MIC Enterococcus faecalis (GC 2242) (Enterococcus sp.; inoculum 5×10^5 CFU/mL, strain GC 2242): 2 µg/mL (≈ 1.4 µM)
MIC Enterococcus faecium (GC 2243) (Enterococcus sp.; inoculum 5×10^5 CFU/mL, strain GC 2243): 1 µg/mL (≈ 0.7 µM)
MIC Enterococcus faecalis (GC 2691) (Enterococcus sp.; inoculum 5×10^5 CFU/mL, strain GC 2691): 2 µg/mL (≈ 1.4 µM)
MIC Enterococcus faecalis (GC 3059) (Enterococcus sp.; inoculum 5×10^5 CFU/mL, strain GC 3059): 2 µg/mL (≈ 1.4 µM)
MIC Enterococcus faecalis (GC 4552) (Enterococcus sp.; inoculum 5×10^5 CFU/mL, strain GC 4552): 2 µg/mL (≈ 1.4 µM)
MIC Enterococcus faecalis (GC 4553) (Enterococcus sp.; inoculum 5×10^5 CFU/mL, strain GC 4553): 2 µg/mL (≈ 1.4 µM)
MIC Enterococcus faecalis (GC 4554) (Enterococcus sp.; inoculum 5×10^5 CFU/mL, strain GC 4554): 2 µg/mL (≈ 1.4 µM)
MIC Enterococcus faecium (GC 4556) (Enterococcus sp.; inoculum 5×10^5 CFU/mL, strain GC 4556): 2 µg/mL (≈ 1.4 µM)
MIC Enterococcus faecium (GC 4557) (Enterococcus sp.; inoculum 5×10^5 CFU/mL, strain GC 4557): 2 µg/mL (≈ 1.4 µM)
MIC Enterococcus avium (GC 4558) (Enterococcus sp.; inoculum 5×10^5 CFU/mL, strain GC 4558): 2 µg/mL (≈ 1.4 µM)
MIC Enterococcus faecalis (GC 6189) (Enterococcus sp.; inoculum 5×10^5 CFU/mL, strain GC 6189): 2 µg/mL (≈ 1.4 µM)
MIC Staphylococcus aureus (ATCC 29213) (Staphylococcus sp.; strain ATCC 29213): 2 µg/mL (≈ 1.4 µM)
MIC Staphylococcus aureus (GC 1131) (Staphylococcus sp.; strain GC 1131): 1 µg/mL (≈ 0.7 µM)
MIC Staphylococcus aureus (GC 3051) (Staphylococcus sp.; strain GC 3051): 32 µg/mL (≈ 22.4 µM)
MIC Staphylococcus aureus (GC 3053) (Staphylococcus sp.; strain GC 3053): 2 µg/mL (≈ 1.4 µM)
MIC Staphylococcus aureus (GC 4541) (Staphylococcus sp.; strain GC 4541): 2 µg/mL (≈ 1.4 µM)
MIC Staphylococcus aureus (GC 4542) (Staphylococcus sp.; strain GC 4542): 1 µg/mL (≈ 0.7 µM)
MIC Staphylococcus aureus-SMITH (GC 4543) (Staphylococcus sp.; strain GC 4543): 0.5 µg/mL (≈ 0.35 µM)
MIC Staphylococcus aureus (GC 4544) (Staphylococcus sp.; strain GC 4544): 1 µg/mL (≈ 0.7 µM)
MIC Staphylococcus aureus (GC 4545) (Staphylococcus sp.; strain GC 4545): 2 µg/mL (≈ 1.4 µM)
MIC Coagulase Negative Staphylococcus (GC 4547) (Staphylococcus sp.; strain GC 4547): 1 µg/mL (≈ 0.7 µM)
MIC Coagulase Negative Staphylococcus (GC 4548) (Staphylococcus sp.; strain GC 4548): 1 µg/mL (≈ 0.7 µM)
MIC Coagulase Negative Staphylococcus (GC 4549) (Staphylococcus sp.; strain GC 4549): 0.5 µg/mL (≈ 0.35 µM)
MIC Coagulase Negative Staphylococcus (GC 4551) (Staphylococcus sp.; strain GC 4551): 1 µg/mL (≈ 0.7 µM)
SMILES: CC(c1ccccc1)C1NC(=O)CNC(=O)C(CO)NC(=O)C(C(O)C2CNC(=N)N2C2OC(CO)C(O)C(O)C2O)NC(=O)C(C(O)C2CNC(=N)N2)NC(=O)C(Cc2ccc(OC3OC(CO)C(OC4OC5COC6(CC7CCC6(C)C7(C)C)OC5C(O)C4O)C(O)C3O)cc2)NC1=O (stereo not drawn) [Example 214]
MIC Staphylococcus haemolyticus (GC 4546) (Staphylococcus sp.; strain GC 4546): 1 µg/mL (≈ 0.7 µM)
